Results published in patent US10638779B2, “Hemiacetyl proflavors” (FIRMENICH SA, priority 2014, dated 2020).

Tests used:
[1] = Assessment of hydrolysis rate at pH 3.0 (acetaldehyde release, UV/Vis 276 nm); type: physicochemical; conditions: for Half life (s) at pH 3.0 / half-life: pH 3.0 citrate buffer, stirring at 200 rpm, first order release of acetaldehyde, measured for this work; for Acetaldehyde release rate relative to Comparative Samples 2-5: pH 3.0; for half-life: read-out: Half life (s) at pH 3.0 (converted)
Description: Assessment of Hydrolysis Rate at pH 3.0
Instant beverage applications require rapid hydrolysis of the precursor molecules in order to rapidly release acetaldehyde. Because such beverages might be consumed immediately upon preparation, it is desired for the release to be as rapid as possible.
A pH 3.0 buffer solution was prepared by adding 16.43 g citric acid (CAS 77-92-9) and 4.26 g disodium citrate (CAS 144-33-2) to 1 L of deionized water. Aliquots of the Examples 1, 2 and 10 preparations were added to the buffer solution within a Distek 2100B USP 2 dissolution system stirring at 200 rpm. The concentration of acetaldehyde in solution was monitored as a function of time using a UV/Vis spectrometer probe which measured absorbance at 276 nm every 1 second. Results for comparative samples were taken from work by Gassenmeier et al.. A sample of acetaldehyde diethyl acetal was also measured directly and the result was similar to that reported by Gassenmeier et al. Examples 1, 2 and 10 released acetaldehyde faster than Comparative Samples 2-5.

[2] = Assessment of hydrolysis rate under spray drying feed conditions (pH 8.0 buffer/limonene emulsion); type: physicochemical; conditions: for t50 values relative to Comparative Sample 1: pH 8.0 emulsion; for t50 at pH 8.0 (time to 50% of the maximum absorbance): pH 8.0 phosphate buffer, 0.20 g in 0.8 g limonene added to 10 g buffer (emulsion)
Description: Assessment of Hydrolysis Rate Under Spray Driving Feed Conditions
Acetaldehyde precursors suitable for rendering into dry powders must avoid releasing significant levels of acetaldehyde during various stages of processing. In particular they should resist hydrolysis during the preparation of a spray drying feed emulsion, which can be neutral to basic pH and can contain a significant volume fraction of an oil phase.
A pH 8.0 buffer solution was prepared by adding 49.92 g disodium phosphate heptahydrate (CAS 7782-85-6) and 1.93 g monosodium phosphate (CAS 7558-80-7) to 1 L of deionised water. Aliquots of 0.20 g of the Examples 1, 2 and 10 preparations were dissolved in 0.8 g of limonene (CAS 5989-25-7) added to 10 g of the buffer solution within a 30 mL Erlenmeyer flask containing a stir bar. The concentration of acetaldehyde in solution was monitored as a function of time using a UV/Vis spectrometer probe measuring absorbance at 276 nm. Stirring was periodically stopped to allow oil droplets to rise to the surface and collect an unobscured absorbance reading of the aqueous solution. Release followed mixed zero and first order kinetics. t50 (the time to 50% of the maximum absorbance) values are reported in Table 2. Comparative Sample 1 has t50 of 2.1 minutes, which is so short that a person skilled in the art would consider this compound at risk of experiencing a problematic degree of hydrolysis during processing.

Row | Half life (s) at pH 3.0 [1] [s] | t50 values relative to Comparative Sample 1 [2] | t50 at pH 8.0 (time to 50% of the maximum absorbance) [2] [min] | Acetaldehyde release rate relative to Comparative Samples 2-5 [1] | half-life [1] [s] | Compound
1 | 539 | – | – | – | – | CCOC(C)OCC [Comparative Sample 2, Acetaldehyde diethyl acetal, reference compound]
2 | – | longer | 14.0 | faster | 96 | CCOC(C)OC(=O)CCC(=O)OC(C)OCC (stereo not drawn) [Example 1, Bis(1-ethoxyethyl) succinate]
3 | – | longer | 44.6 | faster | 185 | CCOC(C)OC(=O)CCCCC(=O)OC(C)OCC (stereo not drawn) [Example 2, Bis(1-ethoxyethyl) adipate]
4 | 31 | – | 2.1 | faster | – | CCOC(C)OC(C)=O (stereo not drawn) [Example 10, 1-ethoxyethyl acetate, reference compound]
